In patent US9113629B2, “4-amino-6-(4-substituted-phenyl)-picolinates and 6-amino-2-(4-substituted-phenyl)-pyrimidine-4-carboxylates and their use as herbicides” (DOW AGROSCIENCES LLC, priority 2013, dated 2015):
Read-outs that look alike come from different tables or passages of the source.

Tests used:
[1] = tested on: Key Grass and Sedge Weeds as well as Grass Crops; test: Post-emergent Test II herbicidal activity (Table 6); format: in vivo; conditions: post-emergence, 336 h
In short: (§1)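 Injury was rated visually 14 d after treatment on a 0–100% scale against untreated controls. Test compounds, formulated with crop oil concentrate and surfactant and serially diluted down to 1/16× of the top rate, were applied by track sprayer at 187 L/ha onto first- to second-true-leaf seedlings.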

[2] = tested on: Key Broadleaf Weed and Crop Species; test: Post-emergent Test II herbicidal activity (Table 5); format: in vivo; conditions: post-emergence, 336 h, 14 days after application; for pest or weed control at 70 g/ha: application rate 70 g ai/ha; for pest or weed control at 140 g/ha: application rate 140 g ai/ha
In short: as §1

[3] = ABUTH: velvetleaf (Abutilon theophrasti), read-out: Visual Growth Reduction (%) 14 Days After Application, ABUTH
[4] = AMARE: redroot pigweed (Amaranthus retroflexus), read-out: Visual Growth Reduction (%) 14 Days After Application, AMARE
[5] = BRSNN: oilseed-rape, canola (Brassica napus), read-out: Visual Growth Reduction (%) 14 Days After Application, BRSNN
[6] = CHEAL: lambsquarters (Chenopodium album), read-out: Visual Growth Reduction (%) 14 Days After Application, CHEAL
[7] = EPHHL: wild poinsettia (Euphorbia heterophylla), read-out: Visual Growth Reduction (%) 14 Days After Application, EPHHL
[8] = HELAN: sunflower (Helianthus annuus), read-out: Visual Growth Reduction (%) 14 Days After Application, HELAN
[9] = VIOTR: wild pansy (Viola tricolor), read-out: Visual Growth Reduction (%) 14 Days After Application, VIOTR

SMILES: COc1c(N)nc(-c2ccc(Br)c(F)c2F)nc1C(=O)O [Compound 8]
- melting point: 126 to 128 °C (dec.)
- pest or weed control at 70 g/ha ([1]; Triticum aestivum, TRZSS (wheat), application rate 70 g ai/ha, read-out: Visual Growth Reduction (%) 14 Days After Application, TRZSS): 60 to 74%
- pest or weed control at 140 g/ha ([1]; Triticum aestivum, TRZSS (wheat), application rate 140 g ai/ha, read-out: Visual Growth Reduction (%) 14 Days After Application, TRZSS): 75 to 84%
- pest or weed control at 70 g/ha ([1]; CYPES: yellow nutsedge (Cyperus esculentus), application rate 70 g ai/ha, read-out: Visual Growth Reduction (%) 14 Days After Application, CYPES): 95 to 100%
- pest or weed control at 140 g/ha ([1]; CYPES: yellow nutsedge (Cyperus esculentus), application rate 140 g ai/ha, read-out: Visual Growth Reduction (%) 14 Days After Application, CYPES): 95 to 100%
- pest or weed control at 70 g/ha ([1]; DIGSA: crabgrass (Digitaria sanguinalis), application rate 70 g ai/ha, read-out: Visual Growth Reduction (%) 14 Days After Application, DIGSA): 75 to 84%
- pest or weed control at 140 g/ha ([1]; DIGSA: crabgrass (Digitaria sanguinalis), application rate 140 g ai/ha, read-out: Visual Growth Reduction (%) 14 Days After Application, DIGSA): 85 to 94%
- pest or weed control at 70 g/ha ([1]; ECHCG: barnyardgrass (Echinochloa crus-galli), application rate 70 g ai/ha, read-out: Visual Growth Reduction (%) 14 Days After Application, ECHCG): 85 to 94%
- pest or weed control at 140 g/ha ([1]; ECHCG: barnyardgrass (Echinochloa crus-galli), application rate 140 g ai/ha, read-out: Visual Growth Reduction (%) 14 Days After Application, ECHCG): 85 to 94%
- pest or weed control at 70 g/ha ([1]; ORYSA: rice (Oryza sativa), application rate 70 g ai/ha, read-out: Visual Growth Reduction (%) 14 Days After Application, ORYSA): 30 to 44%
- pest or weed control at 140 g/ha ([1]; ORYSA: rice (Oryza sativa), application rate 140 g ai/ha, read-out: Visual Growth Reduction (%) 14 Days After Application, ORYSA): 45 to 59%
- pest or weed control at 70 g/ha ([1]; SETFA: giant foxtail (Setaria faberi), application rate 70 g ai/ha, read-out: Visual Growth Reduction (%) 14 Days After Application, SETFA): 75 to 84%
- pest or weed control at 140 g/ha ([1]; SETFA: giant foxtail (Setaria faberi), application rate 140 g ai/ha, read-out: Visual Growth Reduction (%) 14 Days After Application, SETFA): 95 to 100%
- pest or weed control at 70 g/ha ([1]; SORVU: grain sorghum (Sorghum vulgare), application rate 70 g ai/ha, read-out: Visual Growth Reduction (%) 14 Days After Application, SORVU): 95 to 100%
- pest or weed control at 140 g/ha ([1]; SORVU: grain sorghum (Sorghum vulgare), application rate 140 g ai/ha, read-out: Visual Growth Reduction (%) 14 Days After Application, SORVU): 95 to 100%
- pest or weed control at 70 g/ha ([1]; ZEAMX: maize, corn (Zea mays), application rate 70 g ai/ha, read-out: Visual Growth Reduction (%) 14 Days After Application, ZEAMX): 60 to 74%
- pest or weed control at 140 g/ha ([1]; ZEAMX: maize, corn (Zea mays), application rate 140 g ai/ha, read-out: Visual Growth Reduction (%) 14 Days After Application, ZEAMX): 85 to 94%
- pest or weed control at 70 g/ha [2, 3]: 95 to 100%
- pest or weed control at 140 g/ha [2, 3]: 95 to 100%
- pest or weed control at 70 g/ha [2, 4]: 95 to 100%
- pest or weed control at 140 g/ha [2, 4]: 95 to 100%
- pest or weed control at 70 g/ha [2, 5]: 95 to 100%
- pest or weed control at 140 g/ha [2, 5]: 95 to 100%
- pest or weed control at 70 g/ha [2, 6]: 95 to 100%
- pest or weed control at 140 g/ha [2, 6]: 95 to 100%
- pest or weed control at 70 g/ha [2, 7]: 95 to 100%
- pest or weed control at 140 g/ha [2, 7]: 95 to 100%
- pest or weed control at 70 g/ha [2, 8]: 95 to 100%
- pest or weed control at 140 g/ha [2, 8]: 95 to 100%
- pest or weed control at 70 g/ha [2, 9]: 95 to 100%
- pest or weed control at 140 g/ha [2, 9]: 95 to 100%

SMILES: COC(=O)c1nc(-c2ccc(C(F)(F)F)c(F)c2F)c(F)c(N)c1Cl [Compound 149]
- melting point: 131 to 132 °C
- pest or weed control at 70 g/ha ([1]; CYPES: yellow nutsedge (Cyperus esculentus), 70 g ai/ha, read-out: Visual Growth Reduction (%) 14 Days After Application, CYPES): 95 to 100%
- pest or weed control at 140 g/ha ([1]; CYPES: yellow nutsedge (Cyperus esculentus), 140 g ai/ha, read-out: Visual Growth Reduction (%) 14 Days After Application, CYPES): 95 to 100%
- pest or weed control at 70 g/ha ([1]; DIGSA: crabgrass (Digitaria sanguinalis), 70 g ai/ha, read-out: Visual Growth Reduction (%) 14 Days After Application, DIGSA): 30 to 44%
- pest or weed control at 140 g/ha ([1]; DIGSA: crabgrass (Digitaria sanguinalis), 140 g ai/ha, read-out: Visual Growth Reduction (%) 14 Days After Application, DIGSA): 30 to 44%
- pest or weed control at 70 g/ha ([1]; ECHCG: barnyardgrass (Echinochloa crus-galli), 70 g ai/ha, read-out: Visual Growth Reduction (%) 14 Days After Application, ECHCG): 95 to 100%
- pest or weed control at 140 g/ha ([1]; ECHCG: barnyardgrass (Echinochloa crus-galli), 140 g ai/ha, read-out: Visual Growth Reduction (%) 14 Days After Application, ECHCG): 95 to 100%
- pest or weed control at 70 g/ha ([1]; ORYSA: rice (Oryza sativa), crop, 70 g ai/ha, read-out: Visual Growth Reduction (%) 14 Days After Application, ORYSA): 0 to 29%
- pest or weed control at 140 g/ha ([1]; ORYSA: rice (Oryza sativa), crop, 140 g ai/ha, read-out: Visual Growth Reduction (%) 14 Days After Application, ORYSA): 0 to 29%
- pest or weed control at 70 g/ha ([1]; SETFA: giant foxtail (Setaria faberi), 70 g ai/ha, read-out: Visual Growth Reduction (%) 14 Days After Application, SETFA): 30 to 44%
- pest or weed control at 140 g/ha ([1]; SETFA: giant foxtail (Setaria faberi), 140 g ai/ha, read-out: Visual Growth Reduction (%) 14 Days After Application, SETFA): 30 to 44%
- pest or weed control at 70 g/ha ([1]; SORVU: grain sorghum (Sorghum vulgare), 70 g ai/ha, read-out: Visual Growth Reduction (%) 14 Days After Application, SORVU): 95 to 100%
- pest or weed control at 140 g/ha ([1]; SORVU: grain sorghum (Sorghum vulgare), 140 g ai/ha, read-out: Visual Growth Reduction (%) 14 Days After Application, SORVU): 95 to 100%
- pest or weed control at 70 g/ha ([1]; TRZSS (wheat, Triticum aestivum), crop, 70 g ai/ha, read-out: Visual Growth Reduction (%) 14 Days After Application, TRZSS): 30 to 44%
- pest or weed control at 140 g/ha ([1]; TRZSS (wheat, Triticum aestivum), crop, 140 g ai/ha, read-out: Visual Growth Reduction (%) 14 Days After Application, TRZSS): 45 to 59%
- pest or weed control at 70 g/ha ([1]; ZEAMX: maize, corn (Zea mays), crop, 70 g ai/ha, read-out: Visual Growth Reduction (%) 14 Days After Application, ZEAMX): 75 to 84%
- pest or weed control at 140 g/ha ([1]; ZEAMX: maize, corn (Zea mays), crop, 140 g ai/ha, read-out: Visual Growth Reduction (%) 14 Days After Application, ZEAMX): 85 to 94%
- pest or weed control at 70 g/ha [2, 3]: 95 to 100%
- pest or weed control at 140 g/ha [2, 3]: 95 to 100%
- pest or weed control at 70 g/ha [2, 4]: 95 to 100%
- pest or weed control at 140 g/ha [2, 4]: 95 to 100%
- pest or weed control at 70 g/ha [2, 5]: 85 to 94%
- pest or weed control at 140 g/ha [2, 5]: 95 to 100%
- pest or weed control at 70 g/ha [2, 6]: 95 to 100%
- pest or weed control at 140 g/ha [2, 6]: 95 to 100%
- pest or weed control at 70 g/ha [2, 7]: 95 to 100%
- pest or weed control at 140 g/ha [2, 7]: 95 to 100%
- pest or weed control at 70 g/ha [2, 8]: 95 to 100%
- pest or weed control at 140 g/ha [2, 8]: 95 to 100%
- pest or weed control at 70 g/ha [2, 9]: 85 to 94%
- pest or weed control at 140 g/ha [2, 9]: 85 to 94%
